In publication PMC10539439 (Pharmacological Reports, 2023):
Where “and” joins values, the source holds several entries; their conditions need not be identical. Equal values may be shown once. Read-outs that look alike come from different tables or passages of the source.

Tests used:
[1] = Pharmacokinetics in plasma after ip administration; assay type: in vivo, rat; conditions: plasma; for concentration in plasma (single sample): individual samples 1-3
Method: (§1) For the pharmacokinetic study, a group of 56 adult male rats (Wistar, 220–250 g, […]) were used in the experiment. Animals were purchased from the Animal House of the Faculty of Pharmacy of Jagiellonian University Medical College, Krakow, Poland. During the habituation period, the groups of 4 rats were kept in a plastic cage at a controlled room temperature (22 ± 2 ℃), humidity (55 ± 10%), full-spectrum cold white light (350–400 lx), in 12 h light/dark cycles (the lights on at 7:00 am, and off at 19:00 pm), and had free access to standard laboratory pellet and tap water. […] These were then given through an intraperitoneally injections (ip) at a dose of 0.3 mg/kg and 0.4 mg/kg, respectively. Blood samples were collected at 0 min (predose), 5 min, 15 min, 30 min, 60 min, 120 min, and 240 min after compound administration. Blood and brain samples were collected under general anesthesia induced by ip injections of 50 mg/kg ketamine plus 8 mg/kg xylazine. Blood samples were taken in heparinized tubes and immediately centrifuged at 3500 rpm for 10 min, and plasma was collected. Brain and plasma samples were immediately frozen at – 80 ℃ for LC/MS/MS analysis. All experimental procedures were carried out according to EU Directive 2010/63/EU and approved by the I Local Ethics Committee for Animal Experiments of the Jagiellonian University in Krakow, Poland (No. 94/2016).
(§2) The pharmacokinetic parameters were calculated using a non-compartmental approach from the average concentration values, using Phoenix WinNonlin software (Certara, Princeton, NJ 08540 USA). The first-order elimination rate constant (λz) was calculated by linear regression of time versus log concentration. Next, the area under the mean plasma and the concentration in the brain versus the time curve (AUC0→t) were estimated using the log-linear trapezoidal rule (Eq. 1), where Cn is the concentration of the last sampling of each compound1 AUC0→t=∑i=1n(Ci+Ci+1)/2·ti+1-ti+Cn/λz.
The area under the first-moment curve (AUMC0→t) was estimated by calculating of the total area under the first-moment curve using Eq. 2, where tn is the time of last sampling2 AUMC0→t=∑i=1n(ti·Ci+ti+1·Ci+1)/2·ti+1-ti+(tn·Cn)/λz+Cn/λz2.
Mean residence time (MRT, Eq. 3) was calculated as3 MRT=AUMC0→t/AUC0→t.
Total clearance (ClT, Eq. 4) was calculated as4 C1T=F·Di.p./AUC0→t.
(§3) The quantification of compounds in plasma and brain samples was performed using the Sciex API 3200 triple quadrupole mass spectrometer (Concord, Ontario, Canada) equipped with an electrospray (ESI) ionization interface. This instrument was coupled to an Elite LaChrom (Hitachi, USA) HPLC system. Data acquisition and processing were performed using Sciex Analyst 1.5.2 data collection and integration software. After preparation, the samples were injected (20 µL) onto XBridge C18 (2.1 mm × 30 mm, 3.5 μm, Waters, Milford, Massachusetts, USA) analytical column. The mobile phase consisted of 0.1% formic acid in acetonitrile (A) and 0.1% formic acid in water (B) was delivered in a gradient elution starting with 90% of eluent B, increasing for 2 min to 90% of eluent A, maintained for 3 min, and then returned for 5 min to 90% of eluent B, and maintained 90% of eluent B during 5 min at a flow rate of 300 µL/min. The total analysis time was 10 min. […] The ion spray source settings were as follows: spray voltage: 5.5 kV, heater temperature: 400 °C, curtain gas: 10 psi, source gas 1: 20 psi, and source gas 2: 20 psi.
Further dilutions were performed using the same solvent to prepare working standard solutions of the analyte at the following concentrations: 0.025, 0.05, 0.1, 0.25, 0.5, 1.0, 2.5, 5.0, 10, 25, and 50 µg/mL for calibration curve samples (CC) and 0.025, 0.075, 2.2, and 4.5 µg/mL for quality control samples (QC). […]

[2] = Distribution in brain after ip administration; assay type: in vivo, rat; conditions: brain; for concentration in brain (single sample): individual samples 1-3
Method: as §1, with “Poland.” for “Poland. During the habituation period, the groups of 4 rats were kept in a plastic cage at a controlled room temperature (22 ± 2 ℃), humidity (55 ± 10%), full-spectrum cold white light (350–400 lx), in 12 h light/dark cycles (the lights on at 7:00 am, and off at 19:00 pm), and had free access to standard laboratory pellet and tap water.”
as §2, §3
Further dilutions were performed using the same solvent to prepare working standard solutions of the analyte at the following concentrations: 0.025, 0.05, 0.1, 0.25, 0.5, 1.0, 2.5, 5.0, 10, 25, and 50 µg/mL for calibration curve samples (CC) and 0.025, 0.075, 2.2, and 4.5 µg/mL for quality control samples (QC). To prepare samples for calibration curve or quality control samples, 45 µL of the matrix (plasma or brain homogenate) was added with 5 µL of internal standard solution (1 µg/mL) obtaining the final concentration of 100 ng/mL and 5 µL of standard working solutions at the needed CC or QC concentration levels. After the addition of the standard solution, the samples were mixed and purified.
A sample volume of 50 µL of plasma or brain homogenate was transferred to the clean Eppendorf tube and spiked with 5 µL of IS solution (1 µg/mL) obtaining the final concentration of 100 ng/mL. After 5 min of mixing (1500 rpm) proteins were precipitated using 200 µL ACN. After 10 min of sample shaking (1500 rpm), the incubation step was performed (10 min, 4 °C). The samples were then centrifuged (10,000 rpm, 10 min, 4 °C) and the supernatant was transferred to chromatographic vials for LC/MS/MS analysis.

TAAR1 = molecular target: T1, TAAR1 (Homo sapiens, UniProt Q96RJ0); experiment: Intrinsic activity, Hit Hunter cAMP assay; assay type: cell-based
T1 sequence (Q96RJ0 1-339): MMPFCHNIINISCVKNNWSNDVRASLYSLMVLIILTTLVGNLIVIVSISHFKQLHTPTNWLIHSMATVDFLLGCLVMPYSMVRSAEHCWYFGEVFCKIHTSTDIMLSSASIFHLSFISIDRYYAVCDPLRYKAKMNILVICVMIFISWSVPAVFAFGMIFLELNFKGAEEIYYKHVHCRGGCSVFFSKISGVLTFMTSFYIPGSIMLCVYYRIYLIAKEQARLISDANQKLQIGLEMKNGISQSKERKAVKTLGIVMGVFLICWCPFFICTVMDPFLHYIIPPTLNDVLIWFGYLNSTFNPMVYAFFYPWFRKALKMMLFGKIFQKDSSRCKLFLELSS
Method: The intrinsic activity study at cells with overexpression of TAAR1 (Eurofins, cat. No. 95-0173C2) was carried out at Eurofins Discoveries (Fremont, USA) using the Hit Hunter cAMP method. This assay monitors the activation of a GPCR via Gi and Gs secondary messenger signaling in a homogenous, non-imaging assay format using a technology developed by DiscoverX called Enzyme Fragment Complementation (EFC) with β-galactosidase (β-Gal) as the functional reporter. The enzyme is split into two complementary portions: EA for Enzyme Acceptor and ED for Enzyme Donor. ED is fused to cAMP and in the assay competes with cAMP generated by cells for binding to a cAMP-specific antibody. Active β-Gal is formed by complementation of exogenous EA to any unbound EDcAMP.
cAMP Hunter cell lines were expanded from freezer stocks according to standard procedures. Cells were seeded in a total volume of 20 µL into white-walled, 384-well microplates and incubated at 37 ℃ for the appropriate time prior to testing. For agonist determination, cells were incubated with a sample to induce a response. Media was aspirated from cells and replaced with 15 µL 2:1 HBSS/10 mM Hepes:cAMP XS + Ab reagent. Intermediate dilution of sample stocks was performed to generate 4X samples in assay buffer. 5 µL of 4 × sample was added to cells and incubated at 37 ℃ or room temperature for 30 or 60 min. Vehicle concentration was 1%. […] Microplates were read following signal generation with a PerkinElmer Envision instrument for chemiluminescent signal detection.

[3] = cAMP, Agonist, Conc(M) 1.00E-07

Cl.N=C(N)N/N=C/c1c(Cl)cc(O)cc1Cl [HGB]
concentration in plasma (single sample) ([1]; 5 min): 41.279 ng/mL and 54.6155 ng/mL and 66.8757 ng/mL | concentration in plasma (mean) ([1]; 5 min after administration): 54.2567 ng/mL | concentration in plasma (single sample) ([1]; 15 min): 105.888 ng/mL and 100.591 ng/mL and 95.109 ng/mL | concentration in plasma (mean) ([1]; 15 min after administration): 100.53 ng/mL | concentration in plasma (single sample) ([1]; 30 min): 16.0042 ng/mL and 23.9125 ng/mL and 20.5783 ng/mL | concentration in plasma (mean) ([1]; 30 min after administration): 20.165 ng/mL | concentration in plasma (single sample) ([1]; 60 min): 44.699 ng/mL and 41.9435 ng/mL and 39.1715 ng/mL | concentration in plasma (mean) ([1]; 60 min after administration): 41.938 ng/mL | concentration in plasma (single sample) ([1]; 120 min): 10.1897 ng/mL and 6.772 ng/mL and 9 ng/mL | concentration in plasma (mean) ([1]; 120 min after administration): 8.6536 ng/mL | concentration in plasma (single sample) ([1]; 240 min): 5.591 ng/mL and 8.595 ng/mL and 5.3874 ng/mL | concentration in plasma (mean) ([1]; 240 min after administration): 6.524 ng/mL | concentration in brain (single sample) ([2]; 5 min): 14.9497 ng/g and 11.5414 ng/g and 13.5496 ng/g | concentration in brain (mean) ([2]; 5 min after administration): 13.3469 ng/g | concentration in brain (single sample) ([2]; 15 min): 59.5505 ng/g and 64.4857 ng/g and 70.3065 ng/g | concentration in brain (mean) ([2]; 15 min after administration): 64.7809 ng/g | concentration in brain (single sample) ([2]; 30 min): 29.8349 ng/g and 23.7225 ng/g and 18.0636 ng/g | concentration in brain (mean) ([2]; 30 min after administration): 23.8737 ng/g | concentration in brain (single sample) ([2]; 60 min): 5.077 ng/g and 3.611 ng/g and 4.9468 ng/g | concentration in brain (mean) ([2]; 60 min after administration): 4.545 ng/g | concentration in brain (single sample) ([2]; 120 min): 3.263 ng/g and 4.746 ng/g and 3.8221 ng/g | concentration in brain (mean) ([2]; 120 min after administration): 3.944 ng/g | concentration in brain (single sample) ([2]; 240 min): 2.689 ng/g and 4.759 ng/g and 2.17 ng/g | concentration in brain (mean) ([2]; 240 min after administration): 3.206 ng/g

Clc1cccc(N2CCNCC2)c1 [mCPP, 1-(3-Chlorophenyl)piperazine]
EC50 (TAAR1): 237 µM | Intrinsic activity at TAAR1 (in words) (TAAR1): weak agonistic activity | Average Value (raw signal) (TAAR1; cAMP, Agonist, Conc(M) 1e-6): 1440.00 | Value 1 / Value 2 (raw signal) (TAAR1; cAMP, Agonist, Conc(M) 1e-6): 1520 and 1360 | Average Value (raw signal) (TAAR1; cAMP, Agonist, Conc(M) 1e-5): 1660.00 | Value 1 / Value 2 (raw signal) (TAAR1; cAMP, Agonist, Conc(M) 1e-5): 1520 and 1800 | Average Value (raw signal) (TAAR1; cAMP, Agonist, Conc(M) 0.0001): 2760.00 | Value 1 / Value 2 (raw signal) (TAAR1; cAMP, Agonist, Conc(M) 0.0001): 2560 and 2960 | Emax at 100 µM (TAAR1; cAMP, Agonist, Conc(M) 0.0001 (10^–4 M), read-out: % Efficacy (of the full agonist tyramine)): 34% | Average Value (raw signal) (TAAR1; [3]): 1260.00 | Value 1 / Value 2 (raw signal) (TAAR1; [3]): 1440 and 1080

NCCc1ccc(O)cc1 [p-Tyramine]
Curve Bottom (TAAR1; cAMP, Agonist): -5.337 | Curve Top (TAAR1; cAMP, Agonist): 100.3 | Hill (TAAR1; cAMP, Agonist): 1.0838 | Raw Value (TAAR1; cAMP, Agonist, Conc 0.0254026): 800 and 1040 | Raw Value (TAAR1; cAMP, Agonist, Conc 0.0762079): 1080 and 1160 | Percent Efficacy (TAAR1; cAMP, Agonist, Conc 0.228624): 12.1951 and 16.0976 | Raw Value (TAAR1; cAMP, Agonist, Conc 0.228624): 1640 | Percent Efficacy (TAAR1; cAMP, Agonist, Conc 0.685871): 41.0732 and 48.8781 | Raw Value (TAAR1; cAMP, Agonist, Conc 0.685871): 3120 and 3520 | Percent Efficacy (TAAR1; cAMP, Agonist, Conc 2.05761): 73.0732 and 71.5122 | Raw Value (TAAR1; cAMP, Agonist, Conc 2.05761): 4760 and 4680 | Percent Efficacy (TAAR1; cAMP, Agonist, Conc 6.17284): 84.7805 and 92.5854 | Raw Value (TAAR1; cAMP, Agonist, Conc 6.17284): 5360 and 5760 | Percent Efficacy (TAAR1; cAMP, Agonist, Conc 18.5185): 89.4634 and 99.6098 | Raw Value (TAAR1; cAMP, Agonist, Conc 18.5185): 5600 and 6120 | Percent Efficacy (TAAR1; cAMP, Agonist, Conc 55.5556): 100.39 and 104.293 | Raw Value (TAAR1; cAMP, Agonist, Conc 55.5556): 6160 and 6360 | Percent Efficacy (TAAR1; cAMP, Agonist, Conc 166.667): 105.073 and 97.2683 | Raw Value (TAAR1; cAMP, Agonist, Conc 166.667): 6400 and 6000 | Percent Efficacy (TAAR1; cAMP, Agonist, Conc 500): 107.415 and 90.2439 | Raw Value (TAAR1; cAMP, Agonist, Conc 500): 6520 and 5640 | Emax (TAAR1; cAMP, Agonist, read-out: Max Response): 101% | EC50 (TAAR1; cAMP, Agonist, read-out: RC50 (Result Type EC50)): 0.802 µM
